# Measured values: ChEMBL document CHEMBL1201862, “PubChem BioAssay data set” (2004)
#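 These data come from cells grown in 96-well plates and exposed to compound for 48 hours at five concentrations. At the GI50, growth is halved.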 Calls of active or inactive are those of the source. Rule as the data show it: active = GI50 up to about 1.1 µM and inactive = higher.
# Columns and labels:
# Experiment in all cases: NCI tumour cell line growth inhibition, 48 h
# [1] = test system: SK-MEL-28
# [2] = test system: OVCAR-4
# [3] = test system: OVCAR-8
# [4] = test system: SR
# [5] = test system: IGROV-1
# [6] = test system: K562
# [7] = test system: T47D
# [8] = test system: NCI-H460
# [9] = test system: MCF7
# [10] = test system: MDA-MB-231
# [11] = test system: HCT-116
# [12] = test system: HOP-62
# [13] = test system: TK-10
# [14] = test system: SF-295
# [15] = test system: SNB-75
# [16] = test system: SK-MEL-5
# [17] = test system: SW-620
# [18] = test system: NCI/ADR-RES
# [19] = test system: OVCAR-3
# [20] = test system: HL-60
SMILES,GI50 [1],GI50 [2],GI50 [3],GI50 [4],GI50 [5],GI50 [6],GI50 [7],GI50 [8],GI50 [9],GI50 [10],GI50 [11],GI50 [12],GI50 [13],GI50 [14],GI50 [15],GI50 [16],GI50 [17],GI50 [18],GI50 [19],GI50 [20]
Cn1c2ccccc2c2c3c(c4c5ccccc5n(C)c4c21)C(=O)N(Cc1ccccc1)C3=O,> 100 µM (inactive),> 100 µM (inactive),> 100 µM (inactive),31.8 µM (inactive),53.3 µM (inactive),> 100 µM (inactive),> 100 µM (inactive),> 100 µM (inactive),> 100 µM (inactive),> 100 µM (inactive),> 100 µM (inactive),19.3 µM (inactive),> 100 µM (inactive),> 100 µM (inactive),> 100 µM (inactive),77.4 µM (inactive),> 100 µM (inactive),> 100 µM (inactive),,
O=C1CCC(=O)N1n1c(Cc2ccccc2)n[nH]c1=O,> 100 µM (inactive),> 100 µM (inactive),> 100 µM (inactive),> 100 µM (inactive),> 100 µM (inactive),> 100 µM (inactive),> 100 µM (inactive),> 100 µM (inactive),> 100 µM (inactive),> 100 µM (inactive),> 100 µM (inactive),> 100 µM (inactive),> 100 µM (inactive),> 100 µM (inactive),5.26 µM (inactive),> 100 µM (inactive),> 100 µM (inactive),> 100 µM (inactive),> 100 µM (inactive),
O=[N+]([O-])c1ccc(N2N=C(c3c(O)ccc4ccccc34)CC2c2ccc(Cl)cc2)c([N+](=O)[O-])c1 (stereo not drawn),46.9 µM (inactive),64.9 µM (inactive),21.7 µM (inactive),6.97 µM (inactive),22.1 µM (inactive),5.28 µM (inactive),32.6 µM (inactive),29.9 µM (inactive),26.4 µM (inactive),23.8 µM (inactive),15.3 µM (inactive),24.4 µM (inactive),41 µM (inactive),4.59 µM (inactive),12.2 µM (inactive),20.4 µM (inactive),25.3 µM (inactive),16.4 µM (inactive),29.9 µM (inactive),
CN1CCC(n2[nH]c(-c3ccccc3)c(Cc3ccccc3)c2=O)CC1 [BENZPIPERYLON],> 100 µM (inactive),> 100 µM (inactive),> 100 µM (inactive),33.3 µM (inactive),59.7 µM (inactive),42.2 µM (inactive),> 100 µM (inactive),49.5 µM (inactive),> 100 µM (inactive),> 100 µM (inactive),75.9 µM (inactive),> 100 µM (inactive),> 100 µM (inactive),> 100 µM (inactive),29.7 µM (inactive),> 100 µM (inactive),> 100 µM (inactive),> 100 µM (inactive),> 100 µM (inactive),
CN(C)S(=O)(=O)c1ccc2c(c1)/C(=C1/Nc3ccccc3C1=O)C(=O)N2,> 100 µM (inactive),> 100 µM (inactive),32.5 µM (inactive),14.7 µM (inactive),11.9 µM (inactive),34.8 µM (inactive),24.8 µM (inactive),24.7 µM (inactive),24.8 µM (inactive),17 µM (inactive),23.1 µM (inactive),15.7 µM (inactive),19.5 µM (inactive),12.9 µM (inactive),0.0617 µM (active),> 100 µM (inactive),> 100 µM (inactive),71.9 µM (inactive),93.1 µM (inactive),
N#C/C(=N/Nc1[nH]cnc1C(N)=O)C(=O)Nc1ccccc1,88.5 µM (inactive),14.6 µM (inactive),3.23 µM (inactive),,4.55 µM (inactive),1.52 µM (inactive),56.6 µM (inactive),37.6 µM (inactive),54 µM (inactive),32.3 µM (inactive),14.3 µM (inactive),6.18 µM (inactive),18.5 µM (inactive),17.5 µM (inactive),24.5 µM (inactive),58.5 µM (inactive),12.5 µM (inactive),3.45 µM (inactive),5.41 µM (inactive),28.9 µM (inactive)
